Assays:
GST-JAK2(808-1132) = target: T1, GST-JAK2(808-1132) (Homo sapiens, UniProt O60674); experiment: JAK2 kinase assay (Caliper mobility shift, LabChip 3000); type: biochemical
T1 construct: GST-JAK2(808-1132); purchased Invitrogen (Carlsbad, USA) #4288
Procedure, shortened: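 Recombinant GST-JAK2(808-1132) kinase domain with FITC-labelled JAK3tide peptide substrate and ATP; 60 min at 30 °C, EDTA stop. Substrate/product ratio read by microfluidic mobility shift; compounds at 8 final concentrations, 10 to 0.003 μM.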

[1] = test system: JAK1/JAK2-dependent nuclear translocation of STAT1-GFP in HT1080 fibrosarcoma cells; experiment: STAT1 nuclear translocation assay (Cellomics), IFN-γ stimulated HT1080 STAT1-GFP cells; type: cell-based; conditions: Homo sapiens, HT-1080, STAT1 translocation pathway
Procedure, shortened: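 HT1080 cells stably expressing STAT1-GFP, pre-treated 30 min with compound (10 μM–0.003 μM, 0.1% DMSO), then stimulated 2 h with 100 ng/ml IFN-γ, fixed and Hoechst-stained. Nuclear-cytoplasmic GFP differential imaged over ≥1000 cells/well, normalised to unstimulated and DMSO-stimulated wells for IC50.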

T1 sequence (O60674 808-1132): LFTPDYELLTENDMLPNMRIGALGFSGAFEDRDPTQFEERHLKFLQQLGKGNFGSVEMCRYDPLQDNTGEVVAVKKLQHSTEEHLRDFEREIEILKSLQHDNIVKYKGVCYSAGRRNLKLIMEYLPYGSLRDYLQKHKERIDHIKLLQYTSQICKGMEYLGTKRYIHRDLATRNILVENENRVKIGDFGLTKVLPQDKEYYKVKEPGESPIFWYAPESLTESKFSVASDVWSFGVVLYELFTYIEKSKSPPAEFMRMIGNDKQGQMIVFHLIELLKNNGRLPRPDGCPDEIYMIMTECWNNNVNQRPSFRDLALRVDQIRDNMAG

Row | IC50 (GST-JAK2(808-1132)) [nM] | IC50 [1] [nM] | SMILES
1 | < 3 | 165 | O=C(c1c(F)cc(-n2ccc3cnc(Nc4ccc(N5CCN(CCO)CC5)nc4)nc32)cc1F)N1CCOCC1 [Example 264, [2,6-Difluoro-4-(2-{6-[4-(2-hydroxy-ethyl)-piperazin-1-yl]-pyridin-3-ylamino}-pyrrolo[2,3-d]pyrimidin-7-yl)-phenyl]-morpholin-4-yl-methanone]
2 | < 3 | 40 | OCCN1CCN(c2ccc(Nc3ncc4ccn(-c5cc(F)c(CN6CCOCC6)c(F)c5)c4n3)cn2)CC1 [Example 265, 2-(4-{5-[7-(3,5-Difluoro-4-morpholin-4-ylmethyl-phenyl)-7H-pyrrolo[2,3-d]pyrimidin-2-ylamino]-pyridin-2-yl}-piperazin-1-yl)-ethanol]
3 | 8.4 | 150 | C[C@@H]1CN(c2ccc(Nc3ncc4ccn(-c5cc(F)c(C(=O)N6CCOCC6)c(F)c5)c4n3)cn2)C[C@H](C)N1 [Example 266, (4-{2-[6-(cis-3,5-Dimethyl-piperazin-1-yl)-pyridin-3-ylamino]-pyrrolo[2,3-d]pyrimidin-7-yl}-2,6-difluoro-phenyl)-morpholin-4-yl-methanone]
4 | < 3 | 50 | C[C@@H]1CN(c2ccc(Nc3ncc4ccn(-c5cc(F)c(CN6CCOCC6)c(F)c5)c4n3)cn2)C[C@H](C)N1 [Example 267, [7-(3,5-Difluoro-4-morpholin-4-ylmethyl-phenyl)-7H-pyrrolo[2,3-d]pyrimidin-2-yl]-[6-(cis-3,5-dimethyl-piperazin-1-yl)-pyridin-3-yl]-amine]
5 | 7.8 | 210 | O=C(c1c(F)cc(-n2ccc3cnc(Nc4ccc(N5CCNC6(CC6)C5)nc4)nc32)cc1F)N1CCOCC1 [Example 268, (4-{2-[6-(4,7-Diaza-spiro[2.5]oct-7-yl)-pyridin-3-ylamino]-pyrrolo[2,3-d]pyrimidin-7-yl}-2,6-difluoro-phenyl)-morpholin-4-yl-methanone]
6 | 4.3 | 35 | Fc1cc(-n2ccc3cnc(Nc4ccc(N5CCNC6(CC6)C5)nc4)nc32)cc(F)c1CN1CCOCC1 [Example 270, [6-(4,7-Diaza-spiro[2.5]oct-7-yl)-pyridin-3-yl]-[7-(3,5-difluoro-4-morpholin-4-ylmethyl-phenyl)-7H-pyrrolo[2,3-d]pyrimidin-2-yl]-amine]
7 | 11 | 175 | CS(=O)(=O)c1ccc(-n2ccc3cnc(Nc4ccc(N5CCNC6(CC6)C5)nc4)nc32)cc1 [Example 272, [6-(4,7-Diaza-spiro[2.5]oct-7-yl)-pyridin-3-yl]-[7-(4-methanesulfonyl-phenyl)-7H-pyrrolo[2,3-d]pyrimidin-2-yl]-amine]
8 | 6 | 190 | C[C@@H]1CN(c2ccc(Nc3ncc4ccn(-c5ccc(S(C)(=O)=O)cc5)c4n3)cn2)C[C@H](C)N1 [Example 273, [6-(cis-3,5-Dimethyl-piperazin-1-yl)-pyridin-3-yl]-[7-(4-methanesulfonyl-phenyl)-7H-pyrrolo[2,3-d]pyrimidin-2-yl]-amine]
9 | 10.6 | 285 | CCOc1ccc(Nc2ncc3cc(C)n(-c4ccc(CC(=O)N5CCS(=O)(=O)CC5)c(F)c4)c3n2)cc1OCC [Example 286, 2-{4-[2-(3,4-Diethoxy-phenylamino)-6-methyl-pyrrolo[2,3-d]pyrimidin-7-yl]-2-fluoro-phenyl}-1-(1,1-dioxido-thiomorpholin-4-yl)-ethanone]
10 | 46.5 | 441 | CCOc1ccc(Nc2ncc3cc(C)n(-c4ccc(C(=O)N5CCOCC5)c(F)c4)c3n2)cc1OCC [Example 287, {4-[2-(3,4-Diethoxy-phenylamino)-6-methyl-pyrrolo[2,3-d]pyrimidin-7-yl]-2-fluoro-phenyl}-morpholin-4-yl-methanone]
11 | < 3 | 67.5 | O=C(c1ccc(-n2ccc3cnc(Nc4ccc(CN5CCOCC5)cc4)nc32)cc1F)N1CCOCC1 [Example 288, {2-Fluoro-4-[2-(4-morpholin-4-ylmethyl-phenylamino)-pyrrolo[2,3-d]pyrimidin-7-yl]-phenyl}-morpholin-4-yl-methanone]
12 | < 17 | 232 | Cc1ccc(Nc2ncc3ccn(-c4cc(F)c(CN5CCOCC5)c(F)c4)c3n2)cc1C [Example 289, [7-(3,5-Difluoro-4-morpholin-4-ylmethyl-phenyl)-7H-pyrrolo[2,3-d]pyrimidin-2-yl]-(3,4-dimethyl-phenyl)-amine]
13 | < 3 | 37 | Cc1ccc(Nc2ncc3ccn(-c4cc(F)c(CN5CCS(=O)(=O)CC5)c(F)c4)c3n2)cc1C [Example 290, (3,4-Dimethyl-phenyl)-{7-[4-(1,1-dioxido-thiomorpholin-4-ylmethyl)-3,5-difluoro-phenyl]-7H-pyrrolo[2,3-d]pyrimidin-2-yl}-amine]
14 | < 3 | 54 | Cc1ccc(Nc2ncc3ccn(-c4ccc(C(=O)N5CCS(=O)(=O)CC5)c(F)c4)c3n2)cc1C [Example 291, {4-[2-(3,4-Dimethyl-phenylamino)-pyrrolo[2,3-d]pyrimidin-7-yl]-2-fluoro-phenyl}-(1,1-dioxido-thiomorpholin-4-yl)-methanone]
15 | < 3 | 12.5 | CCN1CCN(c2ccc(Nc3ncc4ccn(-c5ccc(CC(=O)N6CCS(=O)(=O)CC6)c(F)c5)c4n3)cc2C)CC1 [Example 292, 1-(1,1-Dioxido-thiomorpholin-4-yl)-2-(4-{2-[4-(4-ethyl-piperazin-1-yl)-3-methyl-phenylamino]-pyrrolo[2,3-d]pyrimidin-7-yl}-2-fluoro-phenyl)-ethanone]
16 | < 3 | 8 | CCN1CCN(c2ccc(Nc3ncc4ccn(-c5ccc(C(=O)N6CCOCC6)c(F)c5)c4n3)cc2C)CC1 [Example 293, (4-{2-[4-(4-Ethyl-piperazin-1-yl)-3-methyl-phenylamino]-pyrrolo[2,3-d]pyrimidin-7-yl}-2-fluoro-phenyl)-morpholin-4-yl-methanone]
17 | < 3 | 415 | Cc1ccc(Nc2ncc3ccn(-c4ccc(C(=O)N5CCOCC5)c(C)c4)c3n2)cc1C [Example 294, {4-[2-(3,4-Dimethyl-phenylamino)-pyrrolo[2,3-d]pyrimidin-7-yl]-2-methyl-phenyl}-morpholin-4-yl-methanone]
18 | 14.5 | 795 | COc1cc(Nc2ncc3ccn(-c4ccc(C(=O)N5CCOCC5)c(F)c4)c3n2)ccc1Cl [Example 295, {4-[2-(4-Chloro-3-methoxy-phenylamino)-pyrrolo[2,3-d]pyrimidin-7-yl]-2-fluoro-phenyl}-morpholin-4-yl-methanone]
19 | < 3 | 1100 | COc1cc(Nc2ncc3ccn(-c4ccc(C(=O)N5CCOCC5)c(C)c4)c3n2)ccc1F [Example 296, {4-[2-(4-Fluoro-3-methoxy-phenylamino)-pyrrolo[2,3-d]pyrimidin-7-yl]-2-methyl-phenyl}-morpholin-4-yl-methanone]
20 | 30 | 2140 | Cc1ccc(Nc2ncc3ccn(-c4ccc(C(=O)NCCN5CCOCC5)c(F)c4)c3n2)cc1C [Example 297, 4-[2-(3,4-Dimethyl-phenylamino)-pyrrolo[2,3-d]pyrimidin-7-yl]-2-fluoro-N-(2-morpholin-4-yl-ethyl)-benzamide]
21 | 23 | 2210 | Cc1ccc(Nc2ncc3ccn(-c4ccc(C(=O)NCCN5CCN(C)CC5)c(F)c4)c3n2)cc1C [Example 298, 4-[2-(3,4-Dimethyl-phenylamino)-pyrrolo[2,3-d]pyrimidin-7-yl]-2-fluoro-N-[2-(4-methyl-piperazin-1-yl)-ethyl]-benzamide]
22 | 18.5 | 145 | Cc1ccc(Nc2ncc3ccn(-c4ccc(C(=O)N5CCC(N(C)C)CC5)c(F)c4)c3n2)cc1C [Example 299, (4-Dimethylamino-piperidin-1-yl)-{4-[2-(3,4-dimethyl-phenylamino)-pyrrolo[2,3-d]pyrimidin-7-yl]-2-fluoro-phenyl}-methanone]
23 | 6.1 | 85 | Cn1cc(Nc2ncc3ccn(-c4ccc(C(=O)N5CCOCC5)c(F)c4)c3n2)cn1 [Example 302, {2-Fluoro-4-[2-(1-methyl-1H-pyrazol-4-ylamino)-pyrrolo[2,3-d]pyrimidin-7-yl]-phenyl}-morpholin-4-yl-methanone]
24 | 4.9 | 295 | COc1cc(Nc2ncc3ccn(-c4ccc(C(=O)N5CCOCC5)c(F)c4)c3n2)ccc1C [Example 303, {2-Fluoro-4-[2-(3-methoxy-4-methyl-phenylamino)-pyrrolo[2,3-d]pyrimidin-7-yl]-phenyl}-morpholin-4-yl-methanone]
25 | 13.5 | 1480 | Cc1ccc(Nc2ncc3ccn(-c4cc(F)c(CN5CCN(C)CC5)c(F)c4)c3n2)cc1C [Example 304, {7-[3,5-Difluoro-4-(4-methyl-piperazin-1-ylmethyl)-phenyl]-7H-pyrrolo[2,3-d]pyrimidin-2-yl}-(3,4-dimethyl-phenyl)-amine]
26 | 26 | 2680 | Cc1ccc(Nc2ncc3ccn(-c4cc(F)c(CN5CCN(C(C)C)CC5)c(F)c4)c3n2)cc1C [Example 305, {7-[3,5-Difluoro-4-(4-isopropyl-piperazin-1-ylmethyl)-phenyl]-7H-pyrrolo[2,3-d]pyrimidin-2-yl}-(3,4-dimethyl-phenyl)-amine]
27 | 39.5 | 550 | Cc1ccc(Nc2ncc3ccn(-c4cc(F)c(CN5CCN(C6CC6)CC5)c(F)c4)c3n2)cc1C [Example 306, {7-[4-(4-Cyclopropyl-piperazin-1-yl methyl)-3,5-difluoro-phenyl]-7H-pyrrolo[2,3-d]pyrimidin-2-yl}-(3,4-dimethyl-phenyl)-amine]

Source: patent US8420657B2 (Novartis AG, priority 2008, dated 2013)
